Our source for the MIC and Activity values is ChEMBL document CHEMBL5352496, “Design, synthesis and biological activity of hybrid antifungals derived from fluconazole and mebendazole” (Eur J Med Chem, 2023).

The subject of data set [1] is Nakaseomyces glabratus. Put plainly: Antifungal activity against Candida glabrata FDC 192 incubated for 24 hrs by broth microdilution method. The class given is functional.
The test system of data set [2] is Candida parapsilosis. The data set can be described thus: Antifungal activity against Candida parapsilosis ATCC 22019 incubated for 24 hrs by broth microdilution method. The class given is functional. Conditions: Lodderomyces parapsilosis.
The subject of data set [3] is Nakaseomyces glabratus. The data set can be described thus: Antifungal activity against Candida glabrata CMRC 89 incubated for 24 hrs by broth microdilution method. The class given is functional. Background: In broth dilution the organism is exposed to a series of concentrations in liquid medium.
In data set [4] the test system is Candida albicans. Put plainly: Antifungal activity against Candida albicans CMRC 19 incubated for 24 hrs by broth microdilution method. The class given is functional.
Data set [5] concerns Cryptococcus neoformans. The data set can be described thus: Antifungal activity against Cryptococcus neoformans IFRC 340 incubated for 24 hrs by broth microdilution method. The class given is functional.
The subject of data set [6] is Candida albicans. Put plainly: Antifungal activity against Candida albicans FDC 151 incubated for 24 hrs by broth microdilution method. The class given is functional.
Data set [7] concerns Candida tropicalis. Put plainly: Antifungal activity against Candida tropicalis FDC 138 incubated for 24 hrs by broth microdilution method. The class given is functional.
The test system of data set [8] is Candida albicans. The data set can be described thus: Antifungal activity against Candida albicans CMRC 192 incubated for 24 hrs by broth microdilution method. The class given is functional.
For data set [9], the system named is BEAS-2B. Put plainly: Cytotoxicity against human BEAS-2B cells assessed as cell viability at 25 ug/ml incubated for 48 hrs by MTT assay. Conditions: dose 25 µg/ml. The class given is toxicity, cell-based.
For data set [10], the system named is HepG2. Put plainly: Cytotoxicity against human HepG2 cells assessed as cell viability at 25 ug/ml incubated for 48 hrs by MTT assay. Conditions: hepg2, 48 h, dose 25 µg/ml. The class given is toxicity, cell-based. Background: Tetrazolium assays rely on reduction of a dye to a coloured formazan, in cell work by metabolically active cells.

Each structure is given as a SMILES string. In brackets after ≈: the same amount, converted by molar mass. Bounds are passed on as bounds.

By MIC is commonly meant the smallest concentration in the dilution series that meets the test's criterion for growth inhibition. For `O=C(c1ccccc1)c1ccc2[nH]c(SCC(O)(Cn3cncn3)c3ccc(F)cc3F)nc2c1` (stereo not drawn), the MIC in [1] worked out at 1 µg/mL (≈ 2.03 µM); in [2], 2 µg/mL (≈ 4.07 µM); in [3], 8 µg/mL (≈ 16.3 µM); in [4] it was 2 µg/mL (≈ 4.07 µM); in data set [5], 1 µg/mL (≈ 2.03 µM); in data set [6] it was 2 µg/mL (≈ 4.07 µM). The MIC in data set [7] and in data set [8] was 1 µg/mL (≈ 2.03 µM) in each case.

As to `OC(CSc1nc2ccccc2s1)(Cn1cncn1)c1ccc(F)cc1` (stereo not drawn), the MIC is over 64 µg/mL in data set [1]; 16 µg/mL (≈ 41.4 µM) in data set [2]; 8 µg/mL (≈ 20.7 µM) in [3]; 8 µg/mL (≈ 20.7 µM) in [4]; 32 µg/mL (≈ 82.8 µM) in [5]; over 64 µg/mL in [6]. Besides, the MIC in data set [7] and in data set [8] was 16 µg/mL (≈ 41.4 µM) in each case.

In the case of `OC(CSc1nc2ccccc2[nH]1)(Cn1cncn1)c1ccc(Cl)cc1Cl` (stereo not drawn), the MIC in [1] amounted to 16 µg/mL (≈ 38.1 µM); in data set [2], 8 µg/mL (≈ 19 µM); in data set [3], 16 µg/mL (≈ 38.1 µM); in data set [4], 8 µg/mL (≈ 19 µM); in [5], 8 µg/mL (≈ 19 µM); in data set [6] it was 8 µg/mL (≈ 19 µM). The MIC in data set [7] and in data set [8] was 8 µg/mL (≈ 19 µM) throughout.

With `OC(CSc1nc2ccccc2[nH]1)(Cn1cncn1)c1ccccc1` (stereo not drawn), the MIC in data set [1] is over 64 µg/mL; in [2], 32 µg/mL (≈ 91.1 µM); in data set [3] it was 16 µg/mL (≈ 45.5 µM); in data set [4] it was over 64 µg/mL; in data set [5], over 64 µg/mL; in data set [6], over 64 µg/mL. Further, the values for the MIC in data set [7] and in data set [8] were 32 µg/mL (≈ 91.1 µM) and over 64 µg/mL, respectively.

`O=C(c1ccccc1)c1ccc2[nH]c(SCC(O)(Cn3cncn3)c3ccc(Cl)cc3)nc2c1` (stereo not drawn): the minimal inhibitory concentration (MIC) was 0.125 µg/mL (≈ 0.255 µM) in [1]; under 0.063 µg/mL in [2]; 1 µg/mL (≈ 2.04 µM) in data set [3]; 0.5 µg/mL (≈ 1.02 µM) in data set [4]; 0.125 µg/mL (≈ 0.255 µM) in data set [5]; under 0.063 µg/mL in [6]. Besides, the MIC was under 0.063 µg/mL in data set [7] and 0.5 µg/mL (≈ 1.02 µM) in data set [8]. Also, the Activity result in [9] and in data set [10] was “Toxic” throughout.

With `O=C(c1ccccc1)c1ccc2[nH]c(SCC(O)(Cn3cncn3)c3ccccc3)nc2c1` (stereo not drawn), the MIC in [1] came out at 4 µg/mL (≈ 8.78 µM); in data set [2] it was 2 µg/mL (≈ 4.39 µM); in [3], 8 µg/mL (≈ 17.6 µM); in [4], 4 µg/mL (≈ 8.78 µM); in data set [5], 2 µg/mL (≈ 4.39 µM); in data set [6], 8 µg/mL (≈ 17.6 µM). In addition, the figures for the MIC in data set [7] and in data set [8] were 8 µg/mL (≈ 17.6 µM) and 4 µg/mL (≈ 8.78 µM), respectively.

Take `OC(CSc1nc2ccccc2s1)(Cn1cncn1)c1ccccc1` (stereo not drawn): the MIC in [1] was determined as 32 µg/mL (≈ 86.8 µM); in data set [2], 8 µg/mL (≈ 21.7 µM); in [3], 32 µg/mL (≈ 86.8 µM); in [4], 16 µg/mL (≈ 43.4 µM); in data set [5], 16 µg/mL (≈ 43.4 µM); in data set [6], 32 µg/mL (≈ 86.8 µM). The MIC in data set [7] and in [8] was 16 µg/mL (≈ 43.4 µM) throughout.

As for `OC(CSc1nc2ccccc2[nH]1)(Cn1cncn1)c1ccc(Cl)cc1` (stereo not drawn), the minimum inhibitory concentration (MIC) came to 16 µg/mL (≈ 41.5 µM) in data set [1]; 16 µg/mL (≈ 41.5 µM) in data set [2]; 16 µg/mL (≈ 41.5 µM) in [3]; 8 µg/mL (≈ 20.7 µM) in [4]; 16 µg/mL (≈ 41.5 µM) in data set [5]; 4 µg/mL (≈ 10.4 µM) in data set [6]. Also, the MIC in data set [7] and in data set [8] was 8 µg/mL (≈ 20.7 µM) throughout.

In the case of `O=C(c1ccccc1)c1ccc2[nH]c(SCC(O)(Cn3cncn3)c3ccc(Cl)cc3Cl)nc2c1` (stereo not drawn), the MIC in data set [1] was 1 µg/mL (≈ 1.91 µM); in [2], 2 µg/mL (≈ 3.81 µM); in [3], 2 µg/mL (≈ 3.81 µM); in data set [4], 0.5 µg/mL (≈ 0.953 µM); in [5] it was 1 µg/mL (≈ 1.91 µM); in [6], 0.063 µg/mL (≈ 0.12 µM). The MIC was found to be 0.125 µg/mL (≈ 0.238 µM) in data set [7] and 1 µg/mL (≈ 1.91 µM) in [8].

Turning to `O=C(c1ccccc1)c1ccc2[nH]c(SCC(O)(Cn3cncn3)c3ccc(F)cc3)nc2c1` (stereo not drawn), the MIC is over 64 µg/mL in data set [1]; over 64 µg/mL in data set [2]; 16 µg/mL (≈ 33.8 µM) in data set [3]; 8 µg/mL (≈ 16.9 µM) in data set [4]; 32 µg/mL (≈ 67.6 µM) in [5]; 16 µg/mL (≈ 33.8 µM) in [6]. Moreover, the MIC in data set [7] was 16 µg/mL (≈ 33.8 µM); in data set [8], 8 µg/mL (≈ 16.9 µM).

In the case of `OC(CSc1nc2ccccc2[nH]1)(Cn1cncn1)c1ccc(F)cc1F` (stereo not drawn), the MIC in [1] was over 64 µg/mL; in data set [2], over 64 µg/mL; in data set [3] it was over 64 µg/mL; in [4], over 64 µg/mL; in data set [5] it was 32 µg/mL (≈ 82.6 µM); in data set [6], over 64 µg/mL. Moreover, the MIC in [7] was 32 µg/mL (≈ 82.6 µM); in data set [8] it was over 64 µg/mL.

Turning to `OC(CSc1nc2ccccc2s1)(Cn1cncn1)c1ccc(F)cc1F` (stereo not drawn), the MIC was over 64 µg/mL in data set [1]; over 64 µg/mL in [2]; 32 µg/mL (≈ 79.1 µM) in [3]; 16 µg/mL (≈ 39.6 µM) in [4]; over 64 µg/mL in [5]; over 64 µg/mL in data set [6]. For the same compound, the MIC was over 64 µg/mL in data set [7] and 32 µg/mL (≈ 79.1 µM) in data set [8].

As for `OC(CSc1nc2ccccc2s1)(Cn1cncn1)c1ccc(Cl)cc1` (stereo not drawn), the MIC in data set [1] worked out at 8 µg/mL (≈ 19.9 µM); in data set [2] it was 8 µg/mL (≈ 19.9 µM); in [3], 2 µg/mL (≈ 4.96 µM); in [4], 4 µg/mL (≈ 9.93 µM); in [5], 4 µg/mL (≈ 9.93 µM); in data set [6], 8 µg/mL (≈ 19.9 µM). Further, the MIC in data set [7] and in data set [8] was 4 µg/mL (≈ 9.93 µM) throughout.

As to `OC(CSc1nc2ccccc2s1)(Cn1cncn1)c1ccc(Cl)cc1Cl` (stereo not drawn), the MIC in data set [1] was determined as 16 µg/mL (≈ 36.6 µM); in data set [2], 16 µg/mL (≈ 36.6 µM); in data set [3] it was 16 µg/mL (≈ 36.6 µM); in data set [4], 16 µg/mL (≈ 36.6 µM); in data set [5], 16 µg/mL (≈ 36.6 µM); in [6], 8 µg/mL (≈ 18.3 µM). In addition, the MIC in data set [7] and in data set [8] was 8 µg/mL (≈ 18.3 µM) each time.

With `OC(CSc1nc2ccccc2[nH]1)(Cn1cncn1)c1ccc(F)cc1` (stereo not drawn), the MIC in data set [1] was 0.125 µg/mL (≈ 0.338 µM); in data set [2], under 0.063 µg/mL; in [3], 1 µg/mL (≈ 2.71 µM); in data set [4], 0.125 µg/mL (≈ 0.338 µM); in data set [5], 0.125 µg/mL (≈ 0.338 µM); in data set [6] it was 0.063 µg/mL (≈ 0.171 µM). The minimum inhibitory concentration (MIC) in data set [7] was under 0.063 µg/mL; in data set [8], 0.25 µg/mL (≈ 0.677 µM). Also, the Activity entry in data set [9] and in data set [10] was “Toxic” each time.

In the case of `O=[N+]([O-])c1ccc2[nH]c(SCC(O)(Cn3cncn3)c3ccc(F)cc3F)nc2c1` (stereo not drawn), the MIC in data set [1] was over 64 µg/mL; in data set [2], over 64 µg/mL; in data set [3], over 64 µg/mL; in data set [4] it was over 64 µg/mL; in data set [5], 32 µg/mL (≈ 74 µM); in data set [6], 32 µg/mL (≈ 74 µM). For the same compound, the MIC in [7] is 32 µg/mL (≈ 74 µM); in data set [8], over 64 µg/mL.

Regarding `OC(c1ccccc1)c1ccc2[nH]c(SCC(O)(Cn3cncn3)c3ccccc3)nc2c1` (stereo not drawn), the MIC in [1] turned out to be 8 µg/mL (≈ 17.5 µM); in [2], 4 µg/mL (≈ 8.74 µM); in data set [3], 16 µg/mL (≈ 35 µM); in [4], 8 µg/mL (≈ 17.5 µM); in data set [5], 8 µg/mL (≈ 17.5 µM); in data set [6], 2 µg/mL (≈ 4.37 µM). Besides, the MIC in [7] stood at 2 µg/mL (≈ 4.37 µM); in [8], 8 µg/mL (≈ 17.5 µM).

Turning to `OC(Cn1cncn1)(Cn1cncn1)c1ccc(F)cc1F` [FLUCONAZOLE], the MIC came out at 1 µg/mL (≈ 3.27 µM) in data set [1]; 0.5 µg/mL (≈ 1.63 µM) in data set [2]; 2 µg/mL (≈ 6.53 µM) in data set [3]; 0.25 µg/mL (≈ 0.816 µM) in data set [4]; 0.5 µg/mL (≈ 1.63 µM) in [5]; 0.5 µg/mL (≈ 1.63 µM) in [6]. Also, the MIC in data set [7] and in [8] was 0.25 µg/mL (≈ 0.816 µM) in each case.
